From patent publication US9233984B2, “Compound, method for producing compound, and method for purifying compound” (Nippon Soda Co., Ltd., priority 2012, dated 2016)
Several values for one entry are separate records, joined by “and”; a condition that tells them apart may be missing. Equal values may be shown once.

Test: Isomerization reaction rate under irradiation with light (365 nm, high-pressure mercury lamp) of 1% by weight aqueous solutions
Type: physicochemical
Conditions: 1% by weight aqueous solution
Protocol: The reaction rates of the isomerization reaction were compared for the TZOX and TZOX-Na salt synthesized in Example 1. More specifically, 1% by weight aqueous solutions of each were prepared followed by irradiating these aqueous solutions with light (wavelength: 365 nm) for 3 hours using a high-pressure mercury lamp. A portion of the aqueous solutions were sampled prior to the start of irradiation with light (irradiation time: 0 hours) and at 1, 2 and 3 hours after the start of irradiation with light followed by an investigation of the abundance ratios of the (E) form and (Z) form. Although the abundance ratio of the (Z) form in the case of TZOX-Na prior to irradiation with light was only 0.33%, it increased to 34% after 1 hour had elapsed since the start of irradiation and remained essentially unchanged after that point. In other words, it was determined that the TZOX-Na salt reaches equilibrium as a result of being irradiated with light for 1 hour, and that the isomerization rate thereof is extremely fast. In contrast, in the case of TZOX, the abundance ratio of the (Z) form only finally reached 35% after 3 hours had elapsed since the start of irradiation, and it was determined that at least 2 hours are required to reach equilibrium.

[1] = irradiation time 0 hours (prior to irradiation)

SMILES | Irradiation time required to reach equilibrium of (E)/(Z) isomerization | Abundance Ratio (%) (E) form [1] | Abundance Ratio (%) (Z) form [1] | Abundance Ratio (%) (E) form (irradiation time 1 hour) | Abundance Ratio (%) (Z) form (irradiation time 1 hour) | Abundance Ratio (%) (E) form (irradiation time 2 hours) | Abundance Ratio (%) (Z) form (irradiation time 2 hours) | Abundance Ratio (%) (E) form (irradiation time 3 hours) | Abundance Ratio (%) (Z) form (irradiation time 3 hours)
Cn1nnnc1C(=NO)c1ccccc1 [TZOX, (1-methyl-1H-tetrazol-5-yl)(phenyl)methanoneoxime] | at least 2 hour | 99.52 | 0.45 | 83.99 | 13.7 | 70.39 | 28.13 | 62.8 | 35% and 35.3%
Cn1nnnc1C(=N[O-])c1ccccc1.[Na+] [TZOX-Na] | 1 h | 99.43 | 0.33 | 64.0 | 34 | 63.0 | 33.9 | 66.6 | 32.3%
